Source: patent US20160339022A1, “TREATMENT OF NEUROBLASTOMA WITH HISTONE DEACETYLASE INHIBITORS” (Acetylon Pharmaceuticals Inc., priority 2015, published 2016)

Tests used:
[1] = test system: p21; test: Expression of cell cycle regulator p21; type: cell-based; settings: single agent, FIG. 6A
[2] = test system: neuroblastoma cells; test: Histone acetylation in neuroblastoma cells by western blot; type: cell-based; settings: western blot at 24 hours
[3] = test system: neuroblastoma cells; settings: MTS assay, FIGS. 27 and 28
Protocol: Viable cells were measured in an MTS assay and the combination index (CI) was calculated using the Chou-Talaay method.

[4] = test system: Wnt signaling pathway; test: Levels of Wnt-related signaling molecules; type: cell-based; settings: SK-N-BE2 cells; 3 days in culture
Protocol: The levels of Wnt-related signaling molecules were assessed following treatment (SK-N-BE2 cells; 3 days in culture) with DMSO (control), Compound B alone, ATRA alone, and Compound B in combination with ATRA. b-catenin, the key signaling molecule in the Wnt pathway, is decreased by the Compound B and ATRA combination. Activated p-LRP is decreased after Compound B single agent treatment. Disheveled (Dvl) 2 & 3 is reduced by Compound B and ATRA combination treatment. Naked2 is increased by Compound B as a single agent and in combination with ATRA. Axin1 is decreased by Compound B as a single agent and in combination with ATRA.

[5] = molecular target: HDAC2 (Homo sapiens, UniProt Q92769); test: HDAC2 activity in live cells; type: cell-based; settings: FIG. 1C
[6] = test system: SK-N-BE(2) cells; test: Microarray gene expression and gene set enrichment analysis; type: cell-based, Homo sapiens; settings: 3 μM Compound B, 1 μM ATRA or combination, microarray 48 hr, fold relative to the DMSO control group
Protocol: Gene expression from cells treated with ATRA single agent and combination of ATRA and HDAC1/2i were assessed at 2 hrs and 48 hrs of treatment (FIG. 12A). […] A function analysis of the data using the Ingenuity IPA platform was performed by Qiagen; overlap is observed in the top hits between treatment groups.
Genes that statistically increase over 2-fold relative to the DMSO control were mapped on a Venn diagram (FIG. 12B).
Neuroblastoma cell line SK-N-BE(2) cells were treated with 3 μM Compound B, 1 μM ATRA, or a combination of both at 37° C. over 2 hours (FIG. 12A) or 48 hours (FIG. 12B) and compared to the solvent (DMSO) control.

[7] = test system: neuroblastoma cells; test: Morphology changes / dendrite outgrowth by inverted microscope; type: cell-based; settings: 3, 5 and 7 days
Protocol: Cells were cultured for 3, 5, and 7 days with the indicated treatments. Images were captured on an inverted microscope.

[8] = test system: neuroblastoma cells; test: Cell cycle analysis (Click-iT EdU and FxCycle PI/RNase staining); type: cell-based; settings: 7 days, with ATRA
Protocol: Cells were cultured for 7 days with the indicated treatments and then stained with the Invitrogen Click-iT EdU kit and the Invitrogen FxCycle […] kits to assess frequency of cells in each stage of the cell cycle. […] The effect is enhanced by Compound B in a dose dependent manner.
In combination with ATRA, the effect on p21 is enhanced at concentrations that induce gene expression changes consistent with differentiation. At 7 days of treatment, combination effects are observed on the cell cycle, with a decreasing frequency of s-phase cells and an increasing sub-G1 population (FIG. 6B). […] EDU is increased in cells in s-phase while PI intensity indicates relative levels of DNA. Using these metrics, we illustrate the frequency of cells in the indicated states of the cell cycle.

[9] = test system: neuroblastoma cells; test: Long term growth assay (15, 20, 25 days, Crystal Violet); type: cell-based
Protocol: Cells were cultured for 15, 20 or 25 days with the indicated treatments. Cells were imaged on an inverted microscope at days 15 and 20. On day 25, the cells were stained with Crystal Violet dye and imaged by cell phone camera Importantly, the combination of ATRA and Compound B suppressed the growth of ATRA-resistant colonies.
Cells were cultured for 15, 20 or 25 days with the indicated treatments. Cells were imaged on an inverted microscope at days 15 and 20. On day 25, the cells were stained with Crystal Violet dye and imaged.
Cells were cultured for 15, 20 or 25 days with the indicated treatments. Cells were imaged on an inverted microscope at days 15 and 20. On day 25, the cells were stained with Crystal Violet dye and imaged. It was observed that the combination activity is mediated by HDAC1/2i.
Neuroblastoma cells were treated with Compound B or the HDAC3-selective inhibitor Compound C in a long term growth assay.

[10] = test system: SK-N-BE2 cells; test: Levels of proteins related to cell-cycle progression; type: cell-based; settings: 3 days in culture
Protocol: The levels of proteins related to cell-cycle progression were assessed following treatment (SK-N-BE2 cells; 3 days in culture) with DMSO (control), Compound B alone, ATRA alone, and Compound B in combination with ATRA. p21 is increased by ATRA and enhanced by Compound B. Cyclin D1 is decreased in the combination setting relative to ATRA as a single agent. CDK2 and CDK4 are decreased in the combination setting with Compound B and ATRA.

[11] = test system: AKT and c-RAF; test: Levels of AKT and c-RAF; type: cell-based; settings: SK-N-BE2 cells; 3 days in culture
Protocol: The levels of AKT and c-RAF were assessed following treatment (SK-N-BE2 cells; 3 days in culture) with DMSO (control), Compound B alone, ATRA alone, and Compound B in combination with ATRA. Activated AKT is increased by ATRA and reduced in the combination setting with Compound B. Compound B as a single agent, and in combination with ATRA, decreases cRAF phosphorylation at residue Ser259.

[12] = test system: SK-N-BE(2) cells; test: Differentiation Index Score based on a gene signature; type: cell-based; settings: 48 hours, FIG. 1
Protocol: A subset of the fingerprint genes are assessed for each treatment group, and a score is assigned to each gene based on the degree of expression and weighted with a (+) or (−) sign based on if it increased or decreased as predicted. The scores are summed to generate a single Index value for each treatment group, set to ATRA signal and compared. It is observed that HDAC1/2i induce gene expression consistent with differentiation and that in combination with ATRA, the differentiation effect is enhanced.
The combination of the listed compounds with retinoic acid results in a greater differentation index score, illustrating enhanced differentiation in the combination setting.

[13] = test system: NF-M; test: NF-M staining by fluorescent microscopy; type: cell-based; settings: 7 days on glass slides
Protocol: Cells were cultured for 7 days with the indicated treatments on glass slides. Cells were fixed and stained with antibodies for NF-M and nucleus. Images were captured on a fluorescent microscope.

Chain of HDAC2 (Q92769 whole entry): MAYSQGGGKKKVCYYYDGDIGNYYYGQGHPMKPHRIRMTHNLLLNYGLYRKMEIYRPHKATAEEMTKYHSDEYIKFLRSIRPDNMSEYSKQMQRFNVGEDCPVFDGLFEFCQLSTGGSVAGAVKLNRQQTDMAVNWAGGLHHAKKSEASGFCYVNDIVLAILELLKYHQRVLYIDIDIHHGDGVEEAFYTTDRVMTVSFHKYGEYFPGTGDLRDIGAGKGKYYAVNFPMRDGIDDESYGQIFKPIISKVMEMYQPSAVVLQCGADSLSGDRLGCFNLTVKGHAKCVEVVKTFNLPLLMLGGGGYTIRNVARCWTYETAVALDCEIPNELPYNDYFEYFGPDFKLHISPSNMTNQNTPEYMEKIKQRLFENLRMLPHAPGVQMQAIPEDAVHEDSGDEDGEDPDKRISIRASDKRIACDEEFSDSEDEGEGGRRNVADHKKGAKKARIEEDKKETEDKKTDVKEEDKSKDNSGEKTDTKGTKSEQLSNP

Structure (SMILES): Nc1ccc(-c2cccs2)cc1NC(=O)c1ccc2c(c1)cc(C1CC1)n2CCN1CCOCC1 [Compound B, N-(2-amino-5-(thiophen-2-yl)phenyl)-2-cyclopropyl-1-(2-morpholinoethyl)-1H-indole-5-carboxamide]
- expression of master cell cycle regulator p21 [1]: increased expression
- histone acetylation [2]: induces histone acetylation
- cytotoxic effect on neuroblastoma cells as a single agent [3]: has a cytotoxic effect
- Axin1 level [4]: decreased
- Naked2 level [4]: increased
- activated p-LRP level [4]: decreased
- potency of inhibition of HDAC2 activity in live cells [5]: 500 to 3000 nM
- Gene Expression Change, ACSL3 [6]: 2.23
- Gene Expression Change, ATP7A [6]: 1.98
- Gene Expression Change, CDKN1A [6]: 1.93
- Gene Expression Change, CRABP2 [6]: 1.18
- Gene Expression Change, CTSH [6]: 3.05
- Gene Expression Change, CYP26A1 [6]: 0.99
- Gene Expression Change, CYP26B1 [6]: 1.87
- Gene Expression Change, DHRS3 [6]: 1.03
- Gene Expression Change, DUSP6 [6]: 3.33
- Gene Expression Change, ETS1 [6]: 3.00
- Gene Expression Change, HSPA5 [6]: 3.78
- Gene Expression Change, IER3 [6]: 2.33
- Gene Expression Change, NFKBIZ [6]: 1.95
- Gene Expression Change, PCDH18 [6]: 2.53
- Gene Expression Change, PTGER2 [6]: 1.41
- Gene Expression Change, RARB [6]: 1.14
- Gene Expression Change, RET [6]: 1.34
- morphology / dendrite outgrowth [7]: does not alter morphology
- effect on ATRA-mediated s-phase reduction and sub-G1 increase [8]: enhanced
- neuroblastoma cell growth in long term growth assay ([9]; 1 μM of exposure, single agent, FIG. 11): reduced neuroblastoma cell growth
- growth of ATRA-resistant colonies ([9]; combination with ATRA, 15-25 days): strongly suppressed
- p21 level [10]: enhanced
- cRAF phosphorylation at residue Ser259 [11]: decreases
- Differentiation Index Score (gene signature) [12]: induces gene expression changes consistent with differentiation
- NF-M staining [13]: general increase in NF-M staining
